# Experimental data as given in US11865096B2, “Oils with anti-inflammatory activity containing natural specialized proresolving mediators and their precursors” (Solutex NA LLC, priority 2012, dated 2024).
# Key:
# [1] = system: zymosan A-induced peritoneal inflammation (inflammatory exudate cells); test: Murine peritoneal inflammation induced by zymosan A, exudate cells by FACS; format: in vivo, mouse; settings: 4 hours after 0.1 mg zymosan A i.p., vs vehicle
# Method: With respect to 17-HDHA, it is possible that the anti-inflammatory activity of oil fraction 1 (shown in FIG. 1A) can therefore be explained, at least in part, due to the selective enrichment of this anti-inflammatory SPM precursor into this oil fraction. In order to determine the anti-inflammatory action and contribution of 17-HDHA, the anti-inflammatory effect of fraction 1 was determined in a well-known model of sterile inflammation. […] Vehicle (100 microliter sterile salive), 100 microliter oil fraction 1, or 1 microgram synthetic 17S-HDHA (Cayman Chemicals) in sterile salive was administered by gavage 30 minutes prior to intraperitoneal injection of 0.1 mg zymosan A. Oil fraction 1 analyzed here is the same as fraction number 1 shown in FIGS. 1, 2, and 3. After 4 hours, the inflammatory exudate was recovered and the changes in the number and types of inflammatory cells determined by fluorescent-activated cell sorting employing specific fluorescently-labeled antibodies. Values are mean±standard error of the mean of […] individual mice. Statistically significant differences (Student's t-test) are indicated by * (P<0,05) or # (P<0,10) for comparisons of inflammatory exudate cell numbers obtained after treatment with oil fraction 1 or compared to the vehicle-treated mice. […] This anti-inflammatory effect was reproduced by the oral administration (gavage) of 17S-HDHA.
# [2] = system: LPS-induced inflammation (neutrophil infiltration, myeloperoxidase bioluminescence); test: Murine subcutaneous LPS-induced inflammation, neutrophil activity by luminol bioluminescence; format: in vivo, mouse; settings: given by gavage 30 min prior to LPS (oil fraction 100 microliter; indomethacin 10 mg/kg), vs vehicle
# Description: To evaluate the anti-inflammatory activity of distinct fatty acid-ethyl ester oil fractions obtained during supercritical fluid chromatography (SFC) for the industrial-scale manufacturing of EPA-ethyl ester and DHA-ethyl ester concentrates, a murine model of subcutaneous sterile inflammation was established which permitted measuring the effects of orally administered oil fractions on the pro-inflammatory phase of the inflammatory response. […] In order to initiate inflammation, Escherichia coli lipopolysaccharide (LPS; serotype 127:B8, purified by trichloroacetic acid extraction, Sigma-Aldrich) was injected sub-cutaneously as a single dose (5 milligram per kilogram in a 200 microliter volume of sterile […] dorsal hind flank of a mouse (CD1 mice of 9 weeks age and weighing approximately 30 grams, purchased from the Charles River company). Neutrophil infiltration into the site of inflammation was measured non-invasively by bioluminescence emitted by conversion of luminol by the neutrophil enzyme myeloperoxidase (Gross, 2009), permitting assessment of inflammatory changes over a 6 hour time period. […]
# [3] = gavage 30 min prior (100 microliter oil fraction or 1 microgram 17S-HDHA)
SMILES,"number of polymorphonuclear leukocytes (PMN) in exudate [1, 3]","total number of exudate cells [1, 3]","monocytes, macrophages or lymphocytes in exudate ([1]; gavage 30 min prior)",reduction of LPS-induced inflammation ([2]; 3 hours after LPS s.c.),reduction of LPS-induced inflammation ([2]; 6 hours after LPS s.c.)
"CC/C=C\C[C@H](O)/C=C/C=C\C/C=C\C/C=C\C/C=C\CCC(=O)O [17S-HDHA, 17S-hydroxy-docosa-4Z,7Z,10Z,13Z,15E,19Z-hexaenoic acid]",reproduced,reproduced,No statistically significant changes,–,–
COc1ccc2c(c1)c(CC(=O)O)c(C)n2C(=O)c1ccc(Cl)cc1 [indomethacin],–,–,–,26%,44%
